Patent US8598177B2, “Imidazopyridazines as PAR1 inhibitors, production thereof, and use as medicaments” (Sanofi, priority 2008, dated 2013)
Where a name gives a salt, the structure may show the parent alone.

molecular target: T1, PAR1 (Homo sapiens, UniProt P25116); assay: Inhibition of PAR1-mediated platelet aggregation induced by TRAP; format: cell-based; conditions: washed platelets from healthy volunteer donors, TRAP (70-100 μM solution) as agonist, 96-well format, AUC at 650 nm, 37° C., 20 minutes
T1 construct: endogenous in cells; host or cells: washed platelets prepared from platelet-rich plasma of healthy volunteer donors
T1 sequence (P25116 22-425): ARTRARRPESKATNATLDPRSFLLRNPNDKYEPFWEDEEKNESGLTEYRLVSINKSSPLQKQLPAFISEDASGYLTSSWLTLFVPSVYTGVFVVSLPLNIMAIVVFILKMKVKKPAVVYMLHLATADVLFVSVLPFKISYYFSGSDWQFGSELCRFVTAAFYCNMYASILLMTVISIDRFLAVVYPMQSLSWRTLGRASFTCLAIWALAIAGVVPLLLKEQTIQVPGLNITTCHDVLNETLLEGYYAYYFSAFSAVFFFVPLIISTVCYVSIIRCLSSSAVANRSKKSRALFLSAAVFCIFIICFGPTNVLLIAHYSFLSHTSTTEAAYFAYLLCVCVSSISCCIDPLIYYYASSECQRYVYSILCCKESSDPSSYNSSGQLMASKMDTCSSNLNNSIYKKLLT
Description: PAR1 Determination Method: Inhibition of PAR1-Mediated Platelet Aggregation
The pharmacological testing of the substances took place in platelet aggregation induced by TRAP (thrombin receptor-activating peptide) in 96-well format. For this purpose, blood was taken from healthy volunteer donors in 20 ml syringes containing 2 ml of 3.13% sodium citrate solution. After centrifugation at 150×g for 20 minutes, the platelet-rich plasma (PRP) was separated off and mixed with 1 μl of PGE1 solution (500 μg/ml in ethanol)/ml of PRP. Incubation at room temperature for 5 minutes was followed by centrifugation at 120×g for 15 minutes to remove the leukocytes. The leukocyte-free PRP was transferred in 5 ml portions into 15 ml PP tubes and centrifuged at 360×g for 15 minutes in order to pellet the platelets. The plasma was then decanted off and the platelet sediment from 5 ml of PRP was resuspended in 1 ml of Tyrode's (120 mM NaCl, 2.6 mM KCl, 12 mM NaHCO3, 0.39 mM NaH2PO4×H2O, 10 mM HEPES, 0.35% BSA, 5.5 mM glucose, pH 7.4) and adjusted with Tyrode's to a platelet count of 3×10^5/microliter (4). 13 ml of this cell suspension were then mixed with 866 μL of 10 mM CaCl2 solution, and 120 μL thereof were pipetted into each well of a 96-well plate containing 15 μL of the substance to be tested. After incubation at room temperature in the dark for 30 minutes, 15 μL of a TRAP solution (70-100 μM) were added as agonist, and kinetics were recorded at 650 nm in a SpectraMax 340 at 37° C. for 20 minutes while shaking. The areas under the curves of negative control (Tyrode's/DMSO) and positive control (15 μl of agonist/DMSO) were calculated and the difference was fixed as the 100% value. The substances to be tested were pipetted as serial dilutions in duplicate determination, the AUC was likewise determined for each substance concentration, and the % inhibition of the AUC compared with the control was calculated. On the basis of the % inhibition, the IC50 was calculated by nonlinear regression analysis according to the 4-parameter equation.

| Structure (SMILES) | IC50 [nM] |
| --- | --- |
| CCOc1cc2cn(CC(=O)c3cc(NC(C)=O)cc(S(F)(F)(F)(F)F)c3)c(=N)n2nc1OCC [Example 1, trifluoroacetic acid salt] | 5 |
| CCOc1cc2cn(CC(=O)c3cc(N4CCOCC4)c(OC)c(C(C)(C)C)c3)c(=N)n2nc1OCC [Example 3, 1-(3-tert-Butyl-4-methoxy-5-morpholin-4-ylphenyl)-2-(2,3-diethoxy-7-iminoimidazo-[1,5-b]pyridazin-6-yl)ethanone as trifluoroacetic acid salt] | 4 |
| COc1nn2c(=N)n(CC(=O)c3cc(N4CCOCC4)c(OC)c(C(C)(C)C)c3)cc2cc1OCC(F)(F)F [Example 4, 1-(3-tert-Butyl-4-methoxy-5-morpholin-4-ylphenyl)-2-[7-imino-2-methoxy-3-(2,2,2-trifluoroethoxy)imidazo[1,5-b]pyridazin-6-yl]ethanone as trifluoroacetic acid salt] | 180 |
